These are literature values, as cited in patent publication US5993850A, “Preparation of multivesicular liposomes for controlled release of encapsulated biologically active substances” (priority 1994, dated 1999).

Each structure is given as a SMILES string.

In the series the test system is strains of both gram negative and gram positive bacteria. The conditions noted are these: background statement; cited from earlier work.

On to `NCC[C@H](O)C(=O)N[C@@H]1C[C@H](N)[C@@H](O[C@H]2O[C@H](CN)[C@@H](O)[C@H](O)[C@H]2O)[C@H](O)[C@H]1O[C@H]1O[C@H](CO)[C@@H](O)[C@H](N)[C@H]1O` [amikacin], for which the antibacterial activity entry is “clinically significant activity against strains of both gram negative and gram positive bacteria”.
